The subject of series [1] is small intestine growth in rats. The series is described as follows: Intestinotrophic growth in normal rats (small intestine weight and length). It is filed as in vivo, rat. As to conditions: normal Sprague-Dawley rats, SC 12 days; peptide 12.5 nmol/kg twice daily, fusion protein 25 nmol/kg once daily. The protocol: To determine the intestinotrophic properties of GLP2-XTEN, small intestine growth in rats was measured as a primary pharmacodynamic endpoint. […] GLP2-2G-XTEN was dosed at 25 nmol/kg once daily for 12 days. After sacrifice, a midline incision was made, the small intestines were removed, stretched to their maximum length and the length recorded. The fecal material was flushed from the lumen and the small intestinal wet weight recorded. The small intestine length and weight data were analyzed with an ANOVA model with a Tukey/Kramer post-hoc test for pairwise comparisons, with significance at p=0.05.

Series [2] deals with indomethacin-induced intestinal inflammation in Wistar rats. The class given is in vivo, rat. The protocol: Study 2: Intestinal inflammation was induced in eighty male Wistar rats (Harlan Sprague Dawley) using indomethacin administered on Days 0 and 1 of the experiment. The rats were divided into eight treatment groups for treatment according to Table 20. All treatments were administered per the schedule starting on Day-3 of the experiment. Body weights were determined daily. On Day 2 (24 hours post-2nd indomethacin dose), the animals were prepped for sacrifice and analysis. Thirty minutes prior to sacrifice, the rats were injected intravenously with 1 ml 1% Evans Blue dye, in order to visualize ulcers and extent of inflammation by histopathology analysis. The rats were anesthetized and blood samples were removed to determine the concentration of GLP-2-2G-XTEN using the anti-XTEN/anti-GLP2 ELISA method. The rats were euthanized then necropsied and scored by gross examination of the intestines for the presence of adhesions; i.e., none=0, mild=1, moderate=2, or severe=3. The small intestines were removed and the length of each was recorded. In each small intestine, a longitudinal incision was made and the interior was examined. The degree and length of the ulcerated area was recorded as a score; i.e., none=0, few=1, multiple=2, or continuous=3. The fecal material was washed away with saline and blotted to remove excess fluid and each small intestine was weighed then processed for histopathology examination to quantitate the degree of inflammation; i.e., 0.0%=0, 1-33%=1, 34-66%=2, 67-100%=3.

For series [3] the test system is unchanged. Put plainly: Rat Crohn's Disease indomethacin-induced intestinal inflammation model, Study 3. It is filed as in vivo. The protocol: Study 3: A third indomethacin-induced inflammation study was performed to verify previous results and test additional dose regimens. Intestinal inflammation was induced in male Wistar rats (Harlan Sprague Dawley) using indomethacin administered on Days 0 and 1 of the experiment according to Table 21.
All treatments were administered per the schedule starting on Day-3 of the experiment. Body weights were determined daily. On Day 2 (24 hours post-2nd indomethacin dose), the animals were prepped for sacrifice and analysis. The small intestines were removed and the length of each was recorded. Quantitative histopathology was performed on a subset of samples. Rat small intestine samples consisted of a 3 cm section of proximal jejunum and a 3 cm section of mid-jejunum collected 15 cm and 30 cm from the pylorus, respectively. Samples were fixed in 10% neutral buffered formalin. Samples were trimmed into multiple sections without bias toward lesion presence or absence. These sections were placed in cassettes, embedded in paraffin, microtomed at approximately 4 microns thickness, and stained with hematoxylin and eosin (H&E). The slides were evaluated microscopically by a board certified veterinary pathologist and scored for villous height as well as infiltration/inflammation, mucosal atrophy, villi/crypt appearance, abscesses/ulceration. A 1 to 4 severity grading scale was used, where 1=minimal, 2=mild, 3=moderate, 4=marked/severe, reflecting the combination of the cellular reactions seen histopathologically. Small intestine length was analyzed with an ANOVA model with a Tukey/Kramer post-hoc test for pairwise comparisons, with significance at p=0.05. Non-parametric histology score variables were compared with the vehicle control using a Mann Whitney U test with a Bonferroni correction for the p-value to create an overall alpha of 0.05.

The test system is the same in series [4]. Put plainly: Rat Crohn's Disease indomethacin-induced intestinal inflammation model, Study 1. The class given is in vivo. As to the method: To determine the efficacy of GLP2-XTEN using single dose or qd dosing, the GLP2-2G-XTEN-AE864 fusion protein was evaluated in a rat model of Crohn's Disease of indomethacin-induced intestinal inflammation in three separate studies.
Study 1: Intestinal inflammation was induced in eighty male Wistar rats (Harlan Sprague Dawley) using indomethacin administered on Days 0 and 1 of the experiment. The rats were divided into seven treatment groups for treatment according to Table 19.
All treatments were administered per the schedule starting on Day −3 of the experiment. Body weights were determined daily. Groups 3 and 5 were dosed equimolar/day. On Day 2 (24 hours post-2nd indomethacin dose), the animals were prepped for sacrifice and analysis. Thirty minutes prior to sacrifice, the rats were injected intravenously with 1 ml 1% Evans Blue dye, in order to visualize ulcers and extent of inflammation by histopathology analysis. The rats were anesthetized (SOP 1810), blood samples were removed to determine the concentration of GLP-2-2G-XTEN using the anti-XTEN/anti-GLP2 ELISA method. The rats were euthanized then necropsied and scored by gross examination of the intestines for the presence of adhesions; i.e., none=0, mild=1, moderate=2, or severe=3. The small intestines were removed and the length of each was recorded. In each small intestine, a longitudinal incision was made and the interior was examined. The degree and length of the ulcerated area was recorded as a score; i.e., none=0, few=1, multiple=2, or continuous=3. For TNFα determination, intestinal samples were thawed and homogenized in a total of 20 ml with DPBS. The supernatants were equilibrated to room temperature and assayed for TNFα by ELISA (R&D Systems, Cat. RTA00, lot 281687, exp. 7 Sep. 2011). The samples for Group 1 were assayed undiluted. The samples for Groups 2-7 were diluted 1:4. For histopathology, the small intestines were gently washed with saline to remove the fecal material and were blotted to remove excess fluid. Each small intestine was weighed then processed for histopathology examination to quantitate the degree of inflammation; i.e., 0.0%=0, 1-33%=1, 34-66%=2, 67-100%=3.

For series [5], the system named is DSS-induced intestinal colitis in C57Bl/6 mice. The series is described as follows: Murine acute DSS-induced colitis model. As to conditions: DSS-treated mice. The class given is in vivo, mouse. As to the method:
To determine the efficacy of GLP2-XTEN, the GLP2-2G-XTEN-AE864 fusion protein was evaluated in a mouse model of intestinal inflammatory colitis. […] A naïve, non-treated control group (group 1) was given normal drinking water for the duration of the experiment. […] Tissues were fixed in formalin and then transferred to ethanol for staining and histopathology. The anatomical data was analyzed with an ANOVA model with a Tukey/Kramer post-hoc test for pairwise comparisons, with significance at p=0.05.

The conditions of series [6]: cited from earlier work; for terminal half-life: in humans.

Where two headings read alike, the source gives them in different places.

For the compound `CC[C@H](C)[C@H](NC(=O)[C@H](Cc1ccccc1)NC(=O)[C@H](CC(=O)O)NC(=O)[C@H](CCCNC(=N)N)NC(=O)[C@H](C)NC(=O)[C@H](C)NC(=O)[C@H](CC(C)C)NC(=O)[C@H](CC(N)=O)NC(=O)[C@H](CC(=O)O)NC(=O)[C@H](CC(C)C)NC(=O)[C@@H](NC(=O)[C@@H](NC(=O)[C@H](CC(N)=O)NC(=O)[C@H](CCSC)NC(=O)[C@H](CCC(=O)O)NC(=O)[C@H](CC(=O)O)NC(=O)[C@H](CO)NC(=O)[C@H](Cc1ccccc1)NC(=O)[C@H](CO)NC(=O)CNC(=O)[C@H](CC(=O)O)NC(=O)CNC(=O)[C@@H](N)Cc1c[nH]cn1)[C@@H](C)O)[C@@H](C)CC)C(=O)N[C@@H](CC(N)=O)C(=O)N[C@@H](Cc1c[nH]c2ccccc12)C(=O)N[C@@H](CC(C)C)C(=O)N[C@H](C(=O)N[C@@H](CCC(N)=O)C(=O)N[C@H](C(=O)N[C@@H](CCCCN)C(=O)N[C@H](C(=O)N[C@H](C(=O)N[C@@H](CC(=O)O)C(=O)O)[C@@H](C)O)[C@@H](C)CC)[C@@H](C)O)[C@@H](C)CC` [GLP2-2G peptide, reference compound], in series [1], the “increase in small intestine length” value is “no significant effects” and the “increase in small intestine weight” value amounted to 24%. Further, in series [2] (daily bid peptide, once-daily fusion protein), the “histopathology: protective effects” value is given as “most pronounced in the ileum, but were also seen in the jejunum”. Further, the adhesions score result in series [2] (once-daily fusion protein, daily bid peptide, FIG. 22B) is on record as “reached statistically significant difference”. Moreover, in series [2] (once-daily fusion protein, daily bid peptide, vs indomethacin-treated vehicle control), the small intestine length result is on record as “reached statistically significant difference”. Also, in series [2] (peptide delivered bid, fusion protein delivered qd, vs indomethacin-treated vehicle control), the total disease score result was “significantly improved scores”. Also, the villi height entry in series [3] (fusion protein high (total dose 125 nmol/kg) and low (total dose 75 nmol/kg), FIG. 24B) is listed as “not significant”. Further, in series [3] (three treatment groups), the “mucosal ulceration and mixed cell infiltrate” value is reported as “not significant”. Besides, the small intestine weight entry in series [4] (0.5 mg/kg peptide, both fusion protein groups, compared to diseased control Group 2, FIG. 21C) is recorded as “significant increase”. Also, the small intestine length result in series [4] (FIG. 21B) is given as “significant increase”. For the same compound, in series [4] (FIG. 21D), the “ulceration (gross pathology scoring of small intestine)” value is listed as “significant decreases in ulceration”. In addition, in series [4] (FIG. 21F), the “small intestine inflammation score” value is “neither the GLP-2-2G peptide nor the GLP-2-2G-XTEN fusion protein treatments showed a significant effect on inflammation”. For the same compound, the “body weight at termination” value in series [4] (compared to disease control (Group 2), FIG. 21A) is given as “did not have a significant increase in body weight”. For the same compound, in series [4] (compared to diseased control (Group 2), FIG. 21E), the “scores of adhesions and transulceration” value is “significant decreases”. Also, the “TNFα in small intestine (ELISA)” value in series [4] (compared to diseased control Group 2, FIG. 21G) was “significantly decreased cytokine levels”. Also, in series [5] (BID days 1-10), the “growth in the assayed tissues (colon, small intestine, stomach)” value is reported as “did not induce significant growth”. Also, the “loss of body weight” value in series [5] (SC days 1-10, peptide BID, fusion protein QD, any dose) is on record as “neither the mice treated with GLP2-2G peptide nor any of the groups of mice treated with any dose of GLP2-2G-XTEN mice showed a reduced loss of body weight”.
Turning to `CC[C@H](C)[C@H](NC(=O)[C@H](Cc1ccccc1)NC(=O)[C@H](CC(=O)O)NC(=O)[C@H](CCCNC(=N)N)NC(=O)[C@H](C)NC(=O)[C@H](C)NC(=O)[C@H](CC(C)C)NC(=O)[C@H](CC(N)=O)NC(=O)[C@H](CC(=O)O)NC(=O)[C@H](CC(C)C)NC(=O)[C@@H](NC(=O)[C@@H](NC(=O)[C@H](CC(N)=O)NC(=O)[C@H](CCSC)NC(=O)[C@H](CCC(=O)O)NC(=O)[C@H](CC(=O)O)NC(=O)[C@H](CO)NC(=O)[C@H](Cc1ccccc1)NC(=O)[C@H](CO)NC(=O)CNC(=O)[C@H](CC(=O)O)NC(=O)CNC(=O)[C@@H](N)Cc1c[nH]cn1)[C@@H](C)O)[C@@H](C)CC)C(=O)N[C@@H](CC(N)=O)C(=O)N[C@@H](Cc1c[nH]c2ccccc12)C(=O)N[C@@H](CC(C)C)C(=O)N[C@H](C(=O)N[C@@H](CCC(N)=O)C(=O)N[C@H](C(=O)N[C@@H](CCCCN)C(=O)N[C@H](C(=O)N[C@H](C(=O)N[C@@H](CC(=O)O)C(=O)O)[C@@H](C)O)[C@@H](C)CC)[C@@H](C)O)[C@@H](C)CC` [teduglutide], in series [6] (reported (Marier 2008)), the terminal half-life is on record as 3.2 h. Further, in series [6] (reported (Marier 2010)), the terminal half-life is 0.9 to 2.3 h and the half life is 54 to 138 min.
As to “native GLP-2: human glucagon-like peptide-2, 33 amino acids, HADGSFSDEMNTILDNLAARDFINWLIQTKITD (SEQ ID NO: 2)”, the “half-life (terminal half-life in humans)” value in series [6] (human, in vivo) is “approximately seven minutes”.
